pIC50: −log10 of the molar value.
Tested on: 922993-354-T-J3-PDC complex spheroids, viability, % test/control
Experiment: Anticancer human tumor 922993-354-T-J3-PDC patient-derived endometrial carcinoma cell line growth inhibition [CLK]
Conditions: for pIC50: curve of first compound; for viability, T/C: stronger effect = lower value
Outline: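 Multi-cell-type spheroids combined patient-derived tumor cells with HUVEC endothelial cells and human mesenchymal stem cells. Paired agents were dosed in half-log steps down from about clinical Cmax, or from 10 microM where Cmax was unknown.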

[1] = second compound 0.0316 µM, first compound 0.0316 µM
[2] = second compound 0.0316 µM, first compound 0.1 µM
[3] = second compound 0.0316 µM, first compound 0.316 µM
[4] = second compound 0.0316 µM, first compound 1 µM
[5] = second compound 0.1 µM, first compound 0.0316 µM
[6] = second compound 0.1 µM, first compound 0.1 µM
[7] = second compound 0.1 µM, first compound 0.316 µM
[8] = second compound 0.1 µM, first compound 1 µM
[9] = second compound 0.316 µM, first compound 0.0316 µM
[10] = second compound 0.316 µM, first compound 0.1 µM
[11] = second compound 0.316 µM, first compound 0.316 µM
[12] = second compound 0.316 µM, first compound 1 µM
[13] = second compound 1 µM, first compound 0.0316 µM
[14] = second compound 1 µM, first compound 0.1 µM
[15] = second compound 1 µM, first compound 0.316 µM
[16] = second compound 1 µM, first compound 1 µM
[17] = second compound 3.16 µM, first compound 0.0316 µM
[18] = second compound 3.16 µM, first compound 0.1 µM
[19] = second compound 3.16 µM, first compound 0.316 µM
[20] = second compound 3.16 µM, first compound 1 µM
[21] = second compound 10 µM, first compound 0.0316 µM
[22] = second compound 10 µM, first compound 0.1 µM
[23] = second compound 10 µM, first compound 0.316 µM
[24] = second compound 10 µM, first compound 1 µM
[25] = second compound 0.0316 µM, first compound 0.00316 µM
[26] = second compound 0.0316 µM, first compound 0.01 µM
[27] = second compound 0.1 µM, first compound 0.00316 µM
[28] = second compound 0.1 µM, first compound 0.01 µM
[29] = second compound 0.316 µM, first compound 0.00316 µM
[30] = second compound 0.316 µM, first compound 0.01 µM
[31] = second compound 1 µM, first compound 0.00316 µM
[32] = second compound 1 µM, first compound 0.01 µM
[33] = second compound 3.16 µM, first compound 0.00316 µM
[34] = second compound 3.16 µM, first compound 0.01 µM
[35] = second compound 10 µM, first compound 0.00316 µM
[36] = second compound 10 µM, first compound 0.01 µM
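Note: spheroids exposed to the agents for 7 days before readout.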

CC(Nc1ccc2c(c1)OCCn1cc(N3C(=O)OCC3C(F)F)nc1-2)C(N)=O (stereo unspecified) + CNC(=O)c1ccc(Nc2nc(OC3CCCC3)c3c(-c4ccc5nc(C)oc5c4)c[nH]c3n2)c(OC)c1
pIC50 (second compound 0.0316 µM): 5.42 | pIC50 (second compound 0.1 µM): 5.38 | pIC50 (second compound 0.316 µM): 5.71 | pIC50 (second compound 1 µM): > 7.50 | pIC50 (second compound 3.16 µM): > 7.50 | pIC50 (second compound 10 µM): > 7.50 | viability, T/C [1]: 116% | viability, T/C [2]: 106% | viability, T/C [3]: 84.8% | viability, T/C [4]: 70.6% | viability, T/C (second compound 0.0316 µM, first compound 3.16 µM): 57% | viability, T/C (second compound 0.0316 µM, first compound 10 µM): 31.7% | viability, T/C [5]: 108% | viability, T/C [6]: 102% | viability, T/C [7]: 99.5% | viability, T/C [8]: 74.5% | viability, T/C (second compound 0.1 µM, first compound 3.16 µM): 55.9% | viability, T/C (second compound 0.1 µM, first compound 10 µM): 37% | viability, T/C [9]: 71.7% | viability, T/C [10]: 69.3% | viability, T/C [11]: 77.6% | viability, T/C [12]: 63.8% | viability, T/C (second compound 0.316 µM, first compound 3.16 µM): 40% | viability, T/C (second compound 0.316 µM, first compound 10 µM): 31.8% | viability, T/C [13]: 39.8% | viability, T/C [14]: 36.5% | viability, T/C [15]: 26.4% | viability, T/C [16]: 23.1% | viability, T/C (second compound 1 µM, first compound 3.16 µM): 15.2% | viability, T/C (second compound 1 µM, first compound 10 µM): 10.8% | viability, T/C [17]: 35.1% | viability, T/C [18]: 27.4% | viability, T/C [19]: 24% | viability, T/C [20]: 16.3% | viability, T/C (second compound 3.16 µM, first compound 3.16 µM): 12.3% | viability, T/C (second compound 3.16 µM, first compound 10 µM): 10.8% | viability, T/C [21]: 28.9% | viability, T/C [22]: 27.2% | viability, T/C [23]: 21.5% | viability, T/C [24]: 17.6% | viability, T/C (second compound 10 µM, first compound 3.16 µM): 13.4% | viability, T/C (second compound 10 µM, first compound 10 µM): 9.54%

CCN1CCN(Cc2ccc(Nc3ncc(F)c(-c4cc(F)c5nc(C)n(C(C)C)c5c4)n3)nc2)CC1 + CNC(=O)c1ccc(Nc2nc(OC3CCCC3)c3c(-c4ccc5nc(C)oc5c4)c[nH]c3n2)c(OC)c1
pIC50 (second compound 0.0316 µM): < 6.00 | pIC50 (second compound 0.1 µM): < 6.00 | pIC50 (second compound 0.316 µM): 6.53 | pIC50 (second compound 1 µM): > 8.50 | pIC50 (second compound 3.16 µM): > 8.50 | pIC50 (second compound 10 µM): > 8.50 | viability, T/C [25]: 106% | viability, T/C [26]: 93.2% | viability, T/C [1]: 98.5% | viability, T/C [2]: 88.5% | viability, T/C [3]: 69% | viability, T/C [4]: 59.9% | viability, T/C [27]: 103% | viability, T/C [28]: 93.4% | viability, T/C [5]: 92.4% | viability, T/C [6]: 76.7% | viability, T/C [7]: 66.9% | viability, T/C [8]: 53.8% | viability, T/C [29]: 58% | viability, T/C [30]: 59.2% | viability, T/C [9]: 57.4% | viability, T/C [10]: 56.4% | viability, T/C [11]: 45.5% | viability, T/C [12]: 45.7% | viability, T/C [31]: 35.6% | viability, T/C [32]: 33.6% | viability, T/C [13]: 33.6% | viability, T/C [14]: 35.9% | viability, T/C [15]: 30.5% | viability, T/C [16]: 38.1% | viability, T/C [33]: 29.4% | viability, T/C [34]: 27.9% | viability, T/C [17]: 30.5% | viability, T/C [18]: 31.5% | viability, T/C [19]: 31.6% | viability, T/C [20]: 35.5% | viability, T/C [35]: 28.6% | viability, T/C [36]: 29.2% | viability, T/C [21]: 31.9% | viability, T/C [22]: 29% | viability, T/C [23]: 38.4% | viability, T/C [24]: 36.3%

COc1c(OCCCN2CCOCC2)ccc2c3n(c(=NC(=O)c4cnc(N)nc4)nc12)CCN3 + CNC(=O)c1ccc(Nc2nc(OC3CCCC3)c3c(-c4ccc5nc(C)oc5c4)c[nH]c3n2)c(OC)c1
pIC50 (second compound 0.0316 µM): 6.67 | pIC50 (second compound 0.1 µM): 6.62 | pIC50 (second compound 0.316 µM): 6.77 | pIC50 (second compound 1 µM): > 8.50 | pIC50 (second compound 3.16 µM): > 8.50 | pIC50 (second compound 10 µM): > 8.50 | viability, T/C [25]: 92.2% | viability, T/C [26]: 88.6% | viability, T/C [1]: 83.5% | viability, T/C [2]: 72.2% | viability, T/C [3]: 38.9% | viability, T/C [4]: 14.8% | viability, T/C [27]: 123% | viability, T/C [28]: 100% | viability, T/C [5]: 108% | viability, T/C [6]: 78.2% | viability, T/C [7]: 40% | viability, T/C [8]: 15% | viability, T/C [29]: 90.5% | viability, T/C [30]: 87.9% | viability, T/C [9]: 74.4% | viability, T/C [10]: 63.5% | viability, T/C [11]: 35.6% | viability, T/C [12]: 10.8% | viability, T/C [31]: 42.2% | viability, T/C [32]: 37% | viability, T/C [13]: 27.9% | viability, T/C [14]: 20.6% | viability, T/C [15]: 10.1% | viability, T/C [16]: 1.71% | viability, T/C [33]: 32.6% | viability, T/C [34]: 28.9% | viability, T/C [17]: 22.5% | viability, T/C [18]: 11.8% | viability, T/C [19]: 7.41% | viability, T/C [20]: 1.47% | viability, T/C [35]: 31.1% | viability, T/C [36]: 25.5% | viability, T/C [21]: 20% | viability, T/C [22]: 11.7% | viability, T/C [23]: 7.11% | viability, T/C [24]: 1.68%
